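Tested at 5 concentrations; 48 h exposure; 96-well plates; endpoints linearly interpolated, else capped at highest concentration. GI50: concentration for 50% inhibition of growth.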 Calls of active or inactive are those of the source. Cut-off read from the data, not from the text of the source: active = GI50 up to about 1.1 µM and inactive = higher.
Assays:
Assay in all cases: growth of human tumour cells (NCI), 48 h
[1] = system: Malme-3M
[2] = system: K562
[3] = system: HOP-92
[4] = system: HL-60
[5] = system: RPMI-8226
[6] = system: DU-145
[7] = system: MCF7
[8] = system: SF-539
[9] = system: LOX IMVI
[10] = system: MDA-MB-231
[11] = system: T47D
[12] = system: KM12
[13] = system: SW-620
[14] = system: UACC-62
[15] = system: OVCAR-4
[16] = system: HOP-62
[17] = system: ACHN
[18] = system: M14
[19] = system: A549
[20] = system: 786-0

Row | SMILES | GI50 [1] | GI50 [2] | GI50 [3] | GI50 [4] | GI50 [5] | GI50 [6] | GI50 [7] | GI50 [8] | GI50 [9] | GI50 [10] | GI50 [11] | GI50 [12] | GI50 [13] | GI50 [14] | GI50 [15] | GI50 [16] | GI50 [17] | GI50 [18] | GI50 [19] | GI50 [20]
1 | CN(C)Cc1c[nH]c2ncnc(O)c12 | 77.1 µM (inactive) | 20.7 µM (inactive) | 38.9 µM (inactive) | 19.7 µM (inactive) | 20.6 µM (inactive) | 26.4 µM (inactive) | 24.7 µM (inactive) | 22.4 µM (inactive) | 19 µM (inactive) | 72.4 µM (inactive) | 33.1 µM (inactive) | > 100 µM (inactive) | 27.2 µM (inactive) | 20.9 µM (inactive) | 32.8 µM (inactive) | > 100 µM (inactive) | 38 µM (inactive) | 41.2 µM (inactive) | 86.5 µM (inactive) | 23.2 µM (inactive)
2 | COc1cc(/C=N\NC(=O)C[N+](C)(C)C)cc(OC)c1OC | > 10 µM (inactive) | > 10 µM (inactive) | > 10 µM (inactive) | > 10 µM (inactive) | > 10 µM (inactive) | > 10 µM (inactive) | > 10 µM (inactive) | > 10 µM (inactive) | > 10 µM (inactive) | > 10 µM (inactive) | > 10 µM (inactive) | > 10 µM (inactive) | > 10 µM (inactive) | > 10 µM (inactive) | > 10 µM (inactive) | > 10 µM (inactive) | > 10 µM (inactive) | > 10 µM (inactive) | > 10 µM (inactive) | > 10 µM (inactive)
3 | O=C1C(/N=N/c2ccc(-c3nc4ccccc4[nH]3)cc2)NC(=S)N1c1ccccc1 (stereo not given) | > 100 µM (inactive) | 17.1 µM (inactive) | > 100 µM (inactive) | > 100 µM (inactive) | 22.1 µM (inactive) | 28.6 µM (inactive) | 10.5 µM (inactive) | 51.9 µM (inactive) | 19.8 µM (inactive) | > 100 µM (inactive) | 18.8 µM (inactive) | 18 µM (inactive) | 28.1 µM (inactive) | > 100 µM (inactive) | 61.9 µM (inactive) | > 100 µM (inactive) | > 100 µM (inactive) | > 100 µM (inactive) | 53.7 µM (inactive) | 18.9 µM (inactive)
4 | COC(=O)c1c(CC(Cc2ccc3c(c2)CCCC3)C(=O)O)ccc2c1CCCC2 (stereo not given) | 31.3 µM (inactive) | 34.7 µM (inactive) | 25.2 µM (inactive) | 23 µM (inactive) | 27.6 µM (inactive) | 39.6 µM (inactive) | 31.6 µM (inactive) | 22.5 µM (inactive) | 17.5 µM (inactive) | 27.9 µM (inactive) | 33.4 µM (inactive) | 27.4 µM (inactive) | 40.7 µM (inactive) | 22.4 µM (inactive) | 34.5 µM (inactive) | 22.8 µM (inactive) | 34 µM (inactive) | 42.9 µM (inactive) | 34.1 µM (inactive) | 36.1 µM (inactive)
5 | NC1=CN2c3ccccc3N(CC(=O)O)C2C=C1 (stereo not given) | > 100 µM (inactive) | > 100 µM (inactive) | > 100 µM (inactive) | > 100 µM (inactive) | > 100 µM (inactive) | > 100 µM (inactive) | > 100 µM (inactive) | > 100 µM (inactive) | > 100 µM (inactive) | > 100 µM (inactive) | > 100 µM (inactive) | > 100 µM (inactive) | > 100 µM (inactive) | > 100 µM (inactive) | > 100 µM (inactive) | > 100 µM (inactive) | > 100 µM (inactive) | > 100 µM (inactive) | > 100 µM (inactive) | > 100 µM (inactive)
6 | CC1(C)C=C(/C=N/Nc2ccc([N+](=O)[O-])cc2)C(C#N)=C(O)C1(C#N)C#N | > 100 µM (inactive) | > 100 µM (inactive) | > 100 µM (inactive) | > 100 µM (inactive) | > 100 µM (inactive) | > 100 µM (inactive) | > 100 µM (inactive) | > 100 µM (inactive) | > 100 µM (inactive) | > 100 µM (inactive) | > 100 µM (inactive) | > 100 µM (inactive) | > 100 µM (inactive) | > 100 µM (inactive) | > 100 µM (inactive) | > 100 µM (inactive) | > 100 µM (inactive) | > 100 µM (inactive) | > 100 µM (inactive) | > 100 µM (inactive)
7 | CCCCCCCCCCCCCCCCS(=O)(=O)c1ccc(NN)cc1 | > 10 µM (inactive) | 2.71 µM (inactive) | 7.1 µM (inactive) | 1.5 µM (inactive) | 5.33 µM (inactive) | > 10 µM (inactive) | > 10 µM (inactive) | 7.43 µM (inactive) | 4.29 µM (inactive) | > 10 µM (inactive) | > 10 µM (inactive) | > 10 µM (inactive) | > 10 µM (inactive) | > 10 µM (inactive) | 8.17 µM (inactive) | > 10 µM (inactive) | > 10 µM (inactive) | > 10 µM (inactive) | 5.27 µM (inactive) | > 10 µM (inactive)
8 | CC(C)C(/C=C/c1ccccc1)=N\NC(=S)NN | > 100 µM (inactive) | 24 µM (inactive) | 36.4 µM (inactive) | 19.4 µM (inactive) | 14.2 µM (inactive) | > 100 µM (inactive) | 30.6 µM (inactive) | > 51.1 µM (inactive) | 16.5 µM (inactive) | > 100 µM (inactive) | 47 µM (inactive) | > 86.1 µM (inactive) | 66.5 µM (inactive) | 35.3 µM (inactive) | 50.5 µM (inactive) | > 84.1 µM (inactive) | 40.6 µM (inactive) | > 100 µM (inactive) | 51.1 µM (inactive) | 56.1 µM (inactive)
9 | CCC(=O)Oc1c2ccsc2c(OC(=O)CC)c2ccsc12 | 0.039 µM (active) | 0.461 µM (active) | 1.42 µM (inactive) | 0.201 µM (active) | 0.452 µM (active) | 0.262 µM (active) | 1.45 µM (inactive) | 0.208 µM (active) | 0.0661 µM (active) | 0.232 µM (active) | 1.56 µM (inactive) | 1.8 µM (inactive) | 0.471 µM (active) | 0.217 µM (active) | 0.948 µM (active) | 0.849 µM (active) | 0.419 µM (active) | 0.161 µM (active) | 2.05 µM (inactive) | 2.13 µM (inactive)
10 | Nc1ccn([C@H]2CO[C@@H](CO)O2)c(=O)n1 | 62.2 µM (inactive) | 26.1 µM (inactive) | 1.82 µM (inactive) | 0.252 µM (active) | > 94 µM (inactive) | 0.0658 µM (active) | 1.48 µM (inactive) | 4.46 µM (inactive) | 0.804 µM (active) | > 55.7 µM (inactive) | > 35.6 µM (inactive) | > 100 µM (inactive) | > 56.6 µM (inactive) | 2.37 µM (inactive) | > 100 µM (inactive) | 1.67 µM (inactive) | 0.106 µM (active) | 0.83 µM (active) | 1.35 µM (inactive) | 2.87 µM (inactive)

Source: ChEMBL document CHEMBL1201862, “PubChem BioAssay data set” (2004)
